Experimental data taken from ChEMBL document CHEMBL4354807, “Natural Product Albiziabioside A Conjugated with Pyruvate Dehydrogenase Kinase Inhibitor Dichloroacetate To Induce Apoptosis-Ferroptosis-M2-TAMs Polarization for Combined Cancer Therapy” (J Med Chem, 2019).
Active and inactive are the calls of the source. No cut-off for these calls is given here.

Experiments:
MCF7 [1] = assay: Anticancer activity against human MCF7 cells overexpressing PDK assessed as reduction in cell viability after 72 hrs by MTT assay; format: functional, cell-based; settings: MCF7, 72 h
[2] = biological target: [Pyruvate dehydrogenase (acetyl-transferring)] kinase isozyme 1, mitochondrial (Homo sapiens) (UniProt Q15118); assay: Inhibition of PDK1 (unknown origin) expressed in human MCF7 cells using PDK tide as substrate measured after 90 mins in presence of ATP by ADP-Glo luminescent kinase assay
MCF7 [3] = assay: Downregulation of PDK expression in human MCF7 cells at 2.5 to 10 uM after 48 hrs by Western blot analysis; format: functional, cell-based
HCT-116 = assay: Anticancer activity against human HCT116 cells expressing PDK assessed as reduction in cell viability after 72 hrs by MTT assay; format: functional, cell-based; settings: HCT-116, 72 h
MCF7 [4] = assay: Induction of mitochondrial dysfunction in human MCF7 cells assessed as cell population with intact mitochondrial membrane potential at 30 uM after 24 hrs by JC1 staining-based FACScalibur flow cytometry analysis (reference value: 97%); format: functional
MCF7 [5] = assay: Induction of mitochondrial dysfunction in human MCF7 cells assessed as cell population with mitochondrial membrane potential collapse at 30 uM after 24 hrs by JC1 staining-based FACScalibur flow cytometry analysis (reference value: 2.74 %); format: functional
MCF7 [6] = assay: Induction of ROS generation in human MCF7 cells assessed as ROS level at 30 uM after 24 hrs by DCFDA-fluorescence based flow cytometry (reference value: 6.57 %); format: functional
MCF7 [7] = assay: Inhibition of glycolysis in human MCF7 cells assessed as reduction in intracellular lactate level at 30 uM after 6 hrs by microplate reader assay; format: functional, cell-based
MCF7 [8] = assay: Inhibition of glycolysis in human MCF7 cells assessed as reduction in extracellular lactate level at 30 uM after 6 hrs by microplate reader assay; format: functional, cell-based
4T1 [9] = assay: Inhibition of glycolysis in mouse 4T1 cells expressing PDK assessed as reduction in extracellular lactate level at 30 uM after 6 hrs by microplate reader assay; format: functional, cell-based
4T1 [10] = assay: Inhibition of glycolysis in mouse 4T1 cells expressing PDK assessed as reduction in intracellular lactate level at 30 uM after 6 hrs by microplate reader assay; format: functional, cell-based
MCF7 [11] = assay: Induction of apoptosis in human MCF7 cells assessed as viable cells at 30 uM after 24 hrs by Annexin V-FITC/propidium iodide staining-based flow cytometric analysis (reference value: 93.39 %); format: functional; settings: MCF7, 24 h, read-out: Activity
MCF7 [12] = assay: Induction of apoptosis in human MCF7 cells assessed as early apoptotic cells at 30 uM after 24 hrs by Annexin V-FITC/propidium iodide staining-based flow cytometric analysis (reference value: 3.53 %); format: functional
MCF7 [13] = assay: Induction of apoptosis in human MCF7 cells assessed as late apoptotic cells at 30 uM after 24 hrs by Annexin V-FITC/propidium iodide staining-based flow cytometric analysis (reference value: 2.97 %); format: functional
MCF7 [14] = assay: Induction of apoptosis in human MCF7 cells assessed as necrotic cells at 30 uM after 24 hrs by Annexin V-FITC/propidium iodide staining-based flow cytometric analysis (reference value: 0.10 %); format: functional
MCF7 [15] = assay: Cytotoxicity against human MCF7 cells assessed as cell death at 30 uM pretreated with Z-VAD-fmk followed by compound addition by MTT assay; format: functional, cell-based
A-375 [16] = assay: Anticancer activity against human A375 cells expressing PDK assessed as reduction in cell viability after 72 hrs by MTT assay; format: functional, cell-based; settings: A-375, 72 h
4T1 [17] = assay: Anticancer activity against mouse 4T1 cells expressing PDK assessed as reduction in cell viability after 72 hrs by MTT assay; format: functional, cell-based; settings: 4T1, 72 h
[18] = Cytotoxicity against human HBMEC cells assessed as reduction in cell viability after 72 hrs by MTT assay; format: cell-based
L02 = assay: Cytotoxicity against human LO2 cells assessed as reduction in cell viability after 72 hrs by MTT assay; format: cell-based; settings: L02, 72 h
MCF7 [19] = assay: Antitumor activity against human MCF7 cells xenografted in BALB/c nude mouse assessed as tumor growth inhibition at 30 mg/kg, iv administered every two days for two weeks measured after 14 days; format: functional, organism-based
[20] = Toxicity in BALB/c nude mouse xenografted with human MCF7 cells assessed as mouse death at 30 mg/kg, iv administered every 2 days for 2 weeks measured after 14 days; format: organism-based; settings: in vivo, 336 h
[21] = Toxicity in BALB/c nude mouse xenografted with human MCF7 cells assessed as effect on body weight at 30 mg/kg, iv administered every 2 days for 2 weeks measured after 14 days; format: organism-based; settings: in vivo, 336 h
MCF7 [22] = assay: (§1) Induction of metabolic reversal from aerobic glycolysis to oxidative phosphorylation in human MCF7 cells assessed as increase in extracellular acidification rate at 30 uM pretreated for 4 hrs followed by glucose addition after 25 mins by seahorse XF24 extracellular flux analyzer assay; format: functional, cell-based
MCF7 [23] = assay: as §1, with “mins followed by subsequent addition of oligomycin A after 50 mins” for “mins”; format: functional, cell-based
MCF7 [24] = assay: as §1, with “decline” for “increase”, “mins followed by subsequent addition of oligomycin A after 50 mins followed by 2-DG addition after 80 mins” for “mins”; format: functional, cell-based
MCF7 [25] = assay: (§2) Induction of metabolic reversal from aerobic glycolysis to oxidative phosphorylation in human MCF7 cells assessed as […] at 30 uM pretreated for 6 hrs followed by oligomycin A addition after 25 mins followed by subsequent addition of FCCP after 50 mins followed by antimycin/rotenone addition after 80 mins by seahorse XF24 extracellular flux analyzer assay; format: functional, cell-based
A-375 [26] = assay: Cytotoxicity against human A375 cells assessed as reduction in cell viability after 72 hrs by MTT assay; format: functional, cell-based; settings: A-375, 72 h
MCF7 [27] = assay: Induction of mitochondrial dysfunction in human MCF7 cells assessed as cell population with mitochondrial membrane potential collapse at 10 uM after 24 hrs by JC1 staining-based FACScalibur flow cytometry analysis (reference value: 2.74 %); format: functional
MCF7 [28] = assay: Induction of mitochondrial dysfunction in human MCF7 cells assessed as cell population with intact mitochondrial membrane potential at 10 uM after 24 hrs by JC1 staining-based FACScalibur flow cytometry analysis (reference value: 97%); format: functional
MCF7 [29] = assay: Induction of ROS generation in human MCF7 cells assessed as ROS level at 10 uM after 24 hrs by DCFDA-fluorescence based flow cytometry (reference value: 6.57 %); format: functional
MCF7 [30] = assay: Inhibition of glycolysis in human MCF7 cells assessed as reduction in intracellular lactate level at 10 uM after 6 hrs by microplate reader assay; format: functional, cell-based
MCF7 [31] = assay: Inhibition of glycolysis in human MCF7 cells assessed as reduction in extracellular lactate level at 10 uM after 6 hrs by microplate reader assay; format: functional, cell-based
4T1 [32] = assay: Inhibition of glycolysis in mouse 4T1 cells expressing PDK assessed as reduction in extracellular lactate level at 10 uM after 6 hrs by microplate reader assay; format: functional, cell-based
4T1 [33] = assay: Inhibition of glycolysis in mouse 4T1 cells expressing PDK assessed as reduction in intracellular lactate level at 10 uM after 6 hrs by microplate reader assay; format: functional, cell-based
MCF7 [34] = assay: Induction of apoptosis in human MCF7 cells assessed as viable cells at 10 uM after 24 hrs by Annexin V-FITC/propidium iodide staining-based flow cytometric analysis (reference value: 93.39 %); format: functional; settings: MCF7, 24 h, read-out: Activity
MCF7 [35] = assay: Induction of apoptosis in human MCF7 cells assessed as early apoptotic cells at 10 uM after 24 hrs by Annexin V-FITC/propidium iodide staining-based flow cytometric analysis (reference value: 3.53 %); format: functional
MCF7 [36] = assay: Induction of apoptosis in human MCF7 cells assessed as late apoptotic cells at 10 uM after 24 hrs by Annexin V-FITC/propidium iodide staining-based flow cytometric analysis (reference value: 2.97 %); format: functional
MCF7 [37] = assay: Induction of apoptosis in human MCF7 cells assessed as necrotic cells at 10 uM after 24 hrs by Annexin V-FITC/propidium iodide staining-based flow cytometric analysis (reference value: 0.10 %); format: functional
MCF7 [38] = assay: Cytotoxicity against human MCF7 cells assessed as cell death at 10 uM pretreated with Z-VAD-fmk followed by compound addition by MTT assay; format: functional, cell-based
MCF7 [39] = assay: Antitumor activity against human MCF7 cells xenografted in BALB/c nude mouse assessed as tumor growth inhibition at 10 mg/kg, iv administered every two days for two weeks measured after 14 days; format: functional, organism-based
[40] = Toxicity in BALB/c nude mouse xenografted with human MCF7 cells assessed as mouse death at 10 mg/kg, iv administered every 2 days for 2 weeks measured after 14 days; format: organism-based; settings: in vivo, 336 h
[41] = Toxicity in BALB/c nude mouse xenografted with human MCF7 cells assessed as effect on body weight at 10 mg/kg, iv administered every 2 days for 2 weeks measured after 14 days; format: organism-based; settings: in vivo, 336 h
MCF7 [42] = assay: (§3) Induction of metabolic reversal from aerobic glycolysis to oxidative phosphorylation in human MCF7 cells assessed as increase in extracellular acidification rate at 10 uM pretreated for 4 hrs followed by glucose addition after 25 mins by seahorse XF24 extracellular flux analyzer assay; format: functional, cell-based
MCF7 [43] = assay: as §3, with “mins followed by subsequent addition of oligomycin A after 50 mins” for “mins”; format: functional, cell-based
MCF7 [44] = assay: as §3, with “decrease” for “increase”, “mins followed by subsequent addition of oligomycin A after 50 mins followed by 2-DG addition after 80 mins” for “mins”; format: functional, cell-based
MCF7 [45] = assay: as §2, with “10” for “30”; format: functional, cell-based

O=C([O-])C(Cl)Cl.[Na+] [SODIUM DICHLOROACETATE]
IC50 (MCF7 [1]): > 100 µM
inhibition [2]: Active
Activity (MCF7 [3]): inactive
IC50 (HCT-116): > 100 µM
Activity (MCF7 [4]): 84.95%
Activity (MCF7 [5]): 14.63%
Activity (MCF7 [6]): 15.13%
inhibition (MCF7 [7]): inactive
inhibition (MCF7 [8]): inactive
inhibition (4T1 [9]): inactive
inhibition (4T1 [10]): inactive
viability at 30 µM (MCF7 [11]): 79.9%
Activity (MCF7 [12]): 12.57%
Activity (MCF7 [13]): 5.86%
Activity (MCF7 [14]): 1.67%
Activity (MCF7 [15]): inactive
IC50 (A-375 [16]): > 100 µM
IC50 (4T1 [17]): > 100 µM
IC50 [18]: > 100 µM
IC50 (L02): > 100 µM
Activity (MCF7 [19]): Active
Activity [20]: Non-Toxic
Activity [21]: Non-Toxic
Activity (MCF7 [22]): Active
Activity (MCF7 [23]): Active
Activity (MCF7 [24]): Active
Activity (MCF7 [25]): Active

CC(=O)N[C@H]1[C@H](O[C@H]2CC[C@]3(C)[C@H]4CC=C5[C@@H]6CC(C)(C)CC[C@]6(C(=O)O)CC[C@@]5(C)[C@]4(C)CC[C@H]3C2(C)C)O[C@H](CO[C@@H]2OC[C@H](O)[C@H](O)[C@H]2O)[C@@H](O)[C@@H]1O
IC50 (MCF7 [1]): 20.4 µM
IC50 (A-375 [26]): 5.47 µM
inhibition [2]: inactive
Activity (MCF7 [27]): 25.86%
Activity (MCF7 [28]): 72.69%
IC50 (HCT-116): 21.6 µM
Activity (MCF7 [29]): 26.43%
inhibition (MCF7 [30]): inactive
inhibition (MCF7 [31]): inactive
inhibition (4T1 [32]): inactive
inhibition (4T1 [33]): inactive
viability at 10 µM (MCF7 [34]): 70.4%
Activity (MCF7 [35]): 18.5%
Activity (MCF7 [36]): 9.07%
Activity (MCF7 [37]): 2.07%
Activity (MCF7 [38]): inactive
IC50 (A-375 [16]): 5.73 µM
IC50 (4T1 [17]): 16.4 µM
IC50 [18]: 37.1 µM
IC50 (L02): 33.2 µM
Activity (MCF7 [39]): Active
Activity [40]: Non-Toxic
Activity [41]: Non-Toxic
Activity (MCF7 [42]): Active
Activity (MCF7 [43]): Active
Activity (MCF7 [44]): Active
Activity (MCF7 [45]): Active
